In patent publication US11179341B2, “Self-righting articles” (priority 2017, dated 2021):

System: Micrococcus lysodeikticus cells
Assay: Lysozyme enzyme activity assay
Format: biochemical
Details: micropost tips 80% lysozyme and 20% PEO 200 k, versus uncompressed powder
Method: To measure the activity of lysozyme, the assay provided by Sigma Aldrich was used which measures the amount of lysed Micrococcus lysodeikticus cells. Briefly, a 200 unit/mL Lysozyme solution in 50 mM Potassium Phosphate Buffer was added to a 0.015% [w/v] Micrococcus lysodeikticus cell suspension in the same buffer. The decrease was recorded in A450 over 5 minutes. Nine micropost tips were fabricated from 80% lysozyme and 20% PEO 200 k and dissolved sets of three micropost tips together. Triplicate assays were performed on each dissolved solution for a total of nine tests and the results were compared to the results of a solution made with lysozyme that was not compressed into a micropost tip.

## lysozyme
  lysozyme activity after the manufacturing process: maintain their activity
